These results are taken from patent publication US20240228493A1, “LRRK2 INHIBITORS AND USES THEREOF” (NEURON23, ICN., priority 2022, published 2024).

Series [1] concerns the target T1, wt human LRRK2, catalytic site (Homo sapiens, UniProt Q5S007).
T1 construct: wt human LRRK2, catalytic site, catalytic site (ThermoFisher/USA); purchased ThermoFisher
The series can be described thus: TR-FRET LanthaScreen Tb Kinase Activity Assay, LRRK2 inhibition. It is filed as biochemical. The settings on record: 2 nM wt human LRRK2, 400 nM peptide, 38 μM ATP. A digest of the protocol: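 Fluorescein-ERM (LRRKtide) peptide (400 nM) phosphorylated by 2 nM wt human LRRK2 catalytic site with 38 μM ATP in 1× Kinase Buffer A, 120 min at room temperature after 15 min compound–kinase preincubation. EDTA plus Tb-anti-pLRRKtide antibody added, read after 60 min; inhibition from TR-FRET emission ratios.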
For orientation: In TR-FRET formats the signal depends on donor and acceptor labels being close together.

In a further series the test system is Caco-2 cells. The series is described as follows: Caco-2 bidirectional permeability. As to conditions: for Caco-2 ER: Efflux Ratio=Papp(BA)/Papp(AB); for Caco-2 A2B (10^−6 cm/s): apical to basolateral; for Caco-2 A2B (10^−6 cm/s) / Caco-2 B2A (10^−6 cm/s): 2 hours, pH 7.4; for Caco-2 B2A (10^−6 cm/s): basolateral to apical. It is filed as in vitro ADME. A digest of the protocol: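 Caco-2 monolayers were grown 21–28 days on PET inserts and run in duplicate in HBSS with 10 mM HEPES, pH 7.4. Test compound was dosed bidirectionally at […] for 2 h at 37 °C; quantification was by LC-MS/MS. Papp and efflux ratio (B-A/A-B) were calculated, with lucifer yellow monolayer integrity checks.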
(In general: Caco-2 monolayers are a common model of the intestinal barrier.)

Series [2] is described as follows: Human liver microsomal clearance (hLM Cl). It is filed as in vitro ADME. The settings on record: values marked *: human liver microsomal Clearance. (In general: Liver microsomes are vesicles of endoplasmic reticulum, rich in cytochrome P450 enzymes.)
The next series concerns human hepatocyte. The series is described as follows: Human hepatocyte stability, predicted hepatic clearance (h-Hept CL predict). It is filed as in vitro ADME. As to conditions: human hepatocytes, 0.5×10^6 cells/mL, 1 μM, values without asterisk. A digest of the protocol: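 Cryopreserved human hepatocytes, 0.5×10^6 viable cells/mL in William's E/GlutaMAX, incubated with compound at 1 μM final, duplicates. Sampling at 0-120 min, LC/MS/MS parent loss gives t1/2, converted to CLint and scaled to predicted hepatic clearance (well-stirred model, fub assumed 1).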

T1 sequence (Q5S007 1879-2138 limits assumed): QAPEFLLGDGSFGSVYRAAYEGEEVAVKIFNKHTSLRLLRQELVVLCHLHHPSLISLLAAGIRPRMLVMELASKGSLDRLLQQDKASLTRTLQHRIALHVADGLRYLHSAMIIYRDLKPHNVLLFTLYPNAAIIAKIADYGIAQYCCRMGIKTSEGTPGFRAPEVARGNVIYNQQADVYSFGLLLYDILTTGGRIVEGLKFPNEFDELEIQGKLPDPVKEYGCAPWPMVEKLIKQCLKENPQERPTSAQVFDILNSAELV

For `Cc1n[nH]c2c1N=C(c1c(F)cccc1F)Nc1cnc(N3CCC[C@@](C)(C#N)C3)cc1-2` (single isomer, unassigned) [Example 12], in series [1], the IC50 was less than 1 nM. For the same molecule, in the series on Caco-2 cells, the “Caco-2 ER” value is “L (L (Likely)”: ER≥2.5)”, the “Caco-2 A2B (10^−6 cm/s)” value is “M (M (Moderate permeability)”: 1≤A2B (B2A)≤5)” and the “Caco-2 B2A (10^−6 cm/s)” value was “H (H (High permeability)”: A2B (B2A)>5)”. In series [2], the “hLM Cl (mL/min/kg)” value was “L* (L (Low Cl)”: Hep Cl (mL/min/kg)<6.3)”.

For `Fc1cccc(F)c1C1=Nc2cn[nH]c2-c2cc(N3CC[C@@H](C(F)F)C3)ncc2N1` (single isomer, unassigned) [Example 34], the IC50 in series [1] is less than 1 nM. Further, in the series on Caco-2 cells, the “Caco-2 ER” value was “L (L (Likely)”: ER≥2.5)”, the “Caco-2 A2B (10^−6 cm/s)” value is listed as “M (M (Moderate permeability)”: 1≤A2B (B2A)≤5)” and the “Caco-2 B2A (10^−6 cm/s)” value was “H (H (High permeability)”: A2B (B2A)>5)”. Also, the “hLM Cl (mL/min/kg)” value in series [2] was “I* (I (Intermediate Cl)”: 6.3≤Hep Cl (mL/min/kg)≤14.7)”.

`Cc1n[nH]c2c1N=C(c1c(F)cccc1F)Nc1cnc(N3CCC(C)(C#N)CC3)cc1-2` [Example 17, 1-[8-(2,6-difluorophenyl)-5-methyl-3,4,7,9,12-pentazatricyclo[8.4.0.02,6]tetradeca-1(10),2(6),4,7,11,13-hexaen-13-y1]-4-methyl-piperidine-4-carbonitrile] yielded an IC50 in series [1] of 1 to 100 nM. In the series with Caco-2 cells, the “Caco-2 ER” value was “L (L (Likely)”: ER≥2.5)”, the “Caco-2 A2B (10^−6 cm/s)” value is “H (H (High permeability)”: A2B (B2A)>5)” and the “Caco-2 B2A (10^−6 cm/s)” value is on record as “H (H (High permeability)”: A2B (B2A)>5)”. For the same molecule, in series [2], the “hLM Cl (mL/min/kg)” value was “I* (I (Intermediate Cl)”: 6.3≤Hep Cl (mL/min/kg)≤14.7)”.

As to `Cc1n[nH]c2c1N=C(c1c(F)cccc1F)Nc1c-2cc(N2CCN(CCCF)CC2)nc1C` [Example 32, 8-(2,6-difluorophenyl)-13-[4-(3-fluoropropyl)piperazin-1-y1]-5,11-dimethyl-3,4,7,9,12-pentazatricyclo[8.4.0.02,6]tetradeca-1(10),2(6),4,7,11,13-hexaene], the IC50 in series [1] was less than 1 nM. In the series with Caco-2 cells, the “Caco-2 ER” value is given as “L (L (Likely)”: ER≥2.5)”, the “Caco-2 A2B (10^−6 cm/s)” value was “M (M (Moderate permeability)”: 1≤A2B (B2A)≤5)” and the “Caco-2 B2A (10^−6 cm/s)” value is on record as “H (H (High permeability)”: A2B (B2A)>5)”. In addition, in series [2], the “hLM Cl (mL/min/kg)” value is on record as “L* (L (Low Cl)”: Hep Cl (mL/min/kg)<6.3)”.

As for `Cc1n[nH]c2c1N=C(c1c(F)cccc1F)Nc1c-2cc(N2CCOC3(COC3)C2)nc1C` [Example 38, 8-(5-(2,6-difluorophenyl)-3,7-dimethyl-1,6-dihydropyrazolo[4,3-d]pyrido[4,3-f][1,3]diazepin-9-yl)-2,5-dioxa-8-azaspiro[3.5]nonane], in series [1], the IC50 is less than 1 nM. In addition, in the series on Caco-2 cells, the “Caco-2 ER” value was “L (L (Likely)”: ER≥2.5)”, the “Caco-2 A2B (10^−6 cm/s)” value is “M (M (Moderate permeability)”: 1≤A2B (B2A)≤5)” and the “Caco-2 B2A (10^−6 cm/s)” value is “H (H (High permeability)”: A2B (B2A)>5)”. In addition, the “hLM Cl (mL/min/kg)” value in series [2] is “L* (L (Low Cl)”: Hep Cl (mL/min/kg)<6.3)”.

As for `Cc1n[nH]c2c1N=C(c1c(F)cccc1F)Nc1cnc(N3CCC4(CC3)COC4)cc1-2` [Example 42, 7-(5-(2,6-difluorophenyl)-3-methyl-1,6-dihydropyrazolo[4,3-d]pyrido[4,3-f][1,3]diazepin-9-yl)-2-oxa-7-azaspiro[3.5]nonane], in series [1], the IC50 lay in the range of 1 to 100 nM. Also, in the series on Caco-2 cells, the “Caco-2 ER” value is recorded as “L (L (Likely)”: ER≥2.5)”, the “Caco-2 A2B (10^−6 cm/s)” value was “M (M (Moderate permeability)”: 1≤A2B (B2A)≤5)” and the “Caco-2 B2A (10^−6 cm/s)” value is recorded as “H (H (High permeability)”: A2B (B2A)>5)”. For the same molecule, in series [2], the “hLM Cl (mL/min/kg)” value is on record as “L* (L (Low Cl)”: Hep Cl (mL/min/kg)<6.3)”.

In turn, `Cc1nc(N2CC3(COC3)C2)cc2c1NC(c1c(F)cccc1F)=Nc1cn[nH]c1-2` [Example 43, 6-(5-(2,6-difluorophenyl)-7-methyl-1,6-dihydropyrazolo[4,3-d]pyrido[4,3-f][1,3]diazepin-9-y1)-2-oxa-6-azaspiro[3.3]heptane] displayed an IC50 in series [1] of 1 to 100 nM. Also, in the series with Caco-2 cells, the “Caco-2 ER” value is given as “L (L (Likely)”: ER≥2.5)”, the “Caco-2 A2B (10^−6 cm/s)” value is on record as “M (M (Moderate permeability)”: 1≤A2B (B2A)≤5)” and the “Caco-2 B2A (10^−6 cm/s)” value is recorded as “H (H (High permeability)”: A2B (B2A)>5)”. Moreover, the “hLM Cl (mL/min/kg)” value in series [2] is “L* (L (Low Cl)”: Hep Cl (mL/min/kg)<6.3)”.

In turn, `Cc1n[nH]c2c1N=C(c1c(F)cccc1F)Nc1c-2cc(N2CCO[C@H]([C@@H](C)O)C2)nc1C` [Example 45, (R)-1-((S)-4-(5-(2,6-difluorophenyl)-3,7-dimethyl-1,6-dihydropyrazolo[4,3-d]pyrido[4,3-f][1,3]diazepin-9-yl)morpholin-2-yl)ethan-1-ol] returned an IC50 in series [1] of 1 to 100 nM. Further, in the series with Caco-2 cells, the “Caco-2 ER” value is reported as “L (L (Likely)”: ER≥2.5)”, the “Caco-2 A2B (10^−6 cm/s)” value is “L (L (Low permeability)”: A2B (B2A)<1)” and the “Caco-2 B2A (10^−6 cm/s)” value is recorded as “H (H (High permeability)”: A2B (B2A)>5)”. The “hLM Cl (mL/min/kg)” value in series [2] is recorded as “L* (L (Low Cl)”: Hep Cl (mL/min/kg)<6.3)”.

For the molecule `Cc1n[nH]c2c1N=C(c1c(F)cccc1F)Nc1c-2cc(N2CCS(=O)(=O)CC2)nc1C` [Example 46, 4-(5-(2,6-difluorophenyl)-3,7-dimethyl-1,6-dihydropyrazolo[4,3-d]pyrido[4,3-f][1,3]diazepin-9-yl)thiomorpholine 1,1-dioxide], the IC50 in series [1] was less than 1 nM. In addition, in the series on Caco-2 cells, the “Caco-2 ER” value was “L (L (Likely)”: ER≥2.5)”, the “Caco-2 A2B (10^−6 cm/s)” value is “L (L (Low permeability)”: A2B (B2A)<1)” and the “Caco-2 B2A (10^−6 cm/s)” value is listed as “H (H (High permeability)”: A2B (B2A)>5)”. The “hLM Cl (mL/min/kg)” value in series [2] is “L* (L (Low Cl)”: Hep Cl (mL/min/kg)<6.3)”.

Turning to `Cc1n[nH]c2c1N=C(c1c(F)cccc1F)Nc1cnc(N3CCC(C#N)CC3)cc1-2` [Example 48, 1-(5-(2,6-difluorophenyl)-3-methyl-1,6-dihydropyrazolo[4,3-d]pyrido[4,3-f][1,3]diazepin-9-yl)piperidine-4-carbonitrile], in series [1], the IC50 was in the range of 1 to 100 nM. Moreover, in the series on Caco-2 cells, the “Caco-2 ER” value is given as “L (L (Likely)”: ER≥2.5)”, the “Caco-2 A2B (10^−6 cm/s)” value is reported as “M (M (Moderate permeability)”: 1≤A2B (B2A)≤5)” and the “Caco-2 B2A (10^−6 cm/s)” value was “H (H (High permeability)”: A2B (B2A)>5)”. The “hLM Cl (mL/min/kg)” value in series [2] is “I* (I (Intermediate Cl)”: 6.3≤Hep Cl (mL/min/kg)≤14.7)”.

On to `Cc1cc(F)c(C2=Nc3cn[nH]c3-c3cc(N4CCOCC4)ncc3N2)c(F)c1` [Example 51, 4-(5-(2,6-difluoro-4-methylphenyl)-1,6-dihydropyrazolo[4,3-d]pyrido[4,3-f][1,3]diazepin-9-yl)morpholine], for which the IC50 in series [1] fell in the range of 1 to 100 nM. Besides, in the series with Caco-2 cells, the “Caco-2 ER” value was “L (L (Likely)”: ER≥2.5)”, the “Caco-2 A2B (10^−6 cm/s)” value is on record as “H (H (High permeability)”: A2B (B2A)>5)” and the “Caco-2 B2A (10^−6 cm/s)” value was “H (H (High permeability)”: A2B (B2A)>5)”. Also, the “hHep Cl (mL/min/kg)” value with human hepatocyte was “I (I (Intermediate Cl)”: 6.3≤Hep Cl (mL/min/kg)≤14.7)”.

With `N#C[C@@H]1CCCN(c2cc3c(cn2)NC(c2c(F)cccc2F)=Nc2c(Cl)n[nH]c2-3)C1` [Example 52, (R)-1-(3-chloro-5-(2,6-difluorophenyl)-1,6-dihydropyrazolo[4,3-d]pyrido[4,3-f][1,3]diazepin-9-y1)piperidine-3-carbonitrile], the IC50 in series [1] is less than 1 nM. For the same molecule, in the series on Caco-2 cells, the “Caco-2 ER” value is “L (L (Likely)”: ER≥2.5)”, the “Caco-2 A2B (10^−6 cm/s)” value is given as “M (M (Moderate permeability)”: 1≤A2B (B2A)≤5)” and the “Caco-2 B2A (10^−6 cm/s)” value is given as “H (H (High permeability)”: A2B (B2A)>5)”. Also, the “hHep Cl (mL/min/kg)” value in the series with human hepatocyte is given as “I (I (Intermediate Cl)”: 6.3≤Hep Cl (mL/min/kg)≤14.7)”.

Turning to `Fc1cccc(F)c1C1=Nc2c(Cl)n[nH]c2-c2cc(N3CC4CCC(C3)O4)ncc2N1` [Example 53, 3-(3-chloro-5-(2,6-difluorophenyl)-1,6-dihydropyrazolo[4,3-d]pyrido[4,3-f][1,3]diazepin-9-yl)-8-oxa-3-azabicyclo[3.2.1]octane], the IC50 in series [1] was less than 1 nM. Moreover, in the series with Caco-2 cells, the “Caco-2 ER” value is recorded as “L (L (Likely)”: ER≥2.5)”, the “Caco-2 A2B (10^−6 cm/s)” value is on record as “M (M (Moderate permeability)”: 1≤A2B (B2A)≤5)” and the “Caco-2 B2A (10^−6 cm/s)” value is reported as “H (H (High permeability)”: A2B (B2A)>5)”. Further, in the series on human hepatocyte, the “hHep Cl (mL/min/kg)” value was “I (I (Intermediate Cl)”: 6.3≤Hep Cl (mL/min/kg)≤14.7)”.

The IC50 is the concentration that inhibits the measured activity by half. Read a low IC50 as higher potency.
